This is an account of results in publication PMC2857410 (The Journal of neuroscience : the official journal of the …, 2009).

Structures are written as SMILES.

The target in test [1] is heteromeric α7β2-nAChR (Xenopus oocytes) (Rattus norvegicus, UniProt P12390+Q05941). The test is described as follows: two-electrode voltage clamp, agonist-induced current. Type of test: cell-based. The conditions noted are these: 10 mM, 2 s exposure, -70 mV, pH 7.5. (In general: Two-electrode voltage clamp is typically applied to oocytes expressing channels or transporters.)
heteromeric α7β2-nAChR (Xenopus oocytes), sequence (Q05941 23-502): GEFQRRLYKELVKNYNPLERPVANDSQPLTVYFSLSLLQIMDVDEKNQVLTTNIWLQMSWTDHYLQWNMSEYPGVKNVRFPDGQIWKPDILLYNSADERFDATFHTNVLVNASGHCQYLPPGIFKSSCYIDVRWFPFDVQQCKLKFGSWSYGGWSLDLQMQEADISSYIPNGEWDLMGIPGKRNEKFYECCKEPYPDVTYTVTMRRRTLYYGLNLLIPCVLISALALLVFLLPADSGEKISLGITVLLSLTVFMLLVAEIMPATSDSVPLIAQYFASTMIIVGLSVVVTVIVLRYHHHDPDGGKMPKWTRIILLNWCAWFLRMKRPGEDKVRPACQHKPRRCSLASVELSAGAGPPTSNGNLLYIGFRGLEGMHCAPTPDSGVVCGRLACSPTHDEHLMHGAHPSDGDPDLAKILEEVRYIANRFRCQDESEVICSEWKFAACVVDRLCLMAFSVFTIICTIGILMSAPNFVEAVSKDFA
heteromeric α7β2-nAChR (Xenopus oocytes), sequence (P12390 25-500): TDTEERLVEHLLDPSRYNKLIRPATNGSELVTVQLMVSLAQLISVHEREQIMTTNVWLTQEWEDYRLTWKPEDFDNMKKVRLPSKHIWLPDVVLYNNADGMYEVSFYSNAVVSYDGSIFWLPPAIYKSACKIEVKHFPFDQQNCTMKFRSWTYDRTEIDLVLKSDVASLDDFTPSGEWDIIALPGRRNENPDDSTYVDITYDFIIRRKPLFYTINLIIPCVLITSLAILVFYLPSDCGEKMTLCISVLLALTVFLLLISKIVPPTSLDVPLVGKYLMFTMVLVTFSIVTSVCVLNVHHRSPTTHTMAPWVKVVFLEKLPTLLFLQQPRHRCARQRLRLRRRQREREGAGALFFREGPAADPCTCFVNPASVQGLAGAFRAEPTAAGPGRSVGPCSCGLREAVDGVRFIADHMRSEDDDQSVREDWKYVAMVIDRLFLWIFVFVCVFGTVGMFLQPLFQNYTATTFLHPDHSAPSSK

Test [2] deals with homomeric α7-nAChR (Xenopus oocytes) (Rattus norvegicus, UniProt Q05941). The test is described as above. The format is cell-based. The settings on record: 10 mM, 2 s exposure, -70 mV, pH 7.5.
homomeric α7-nAChR (Xenopus oocytes), sequence (Q05941 23-502): as the sequence (Q05941 23-502) above

Regarding `C[N+](C)(C)CCO` [choline], the “two-electrode voltage clamp, agonist-induced current” value in test [1] is “exhibited smaller peak current responses to choline and slower current decay rates”; in test [2], “oocytes injected with rat α7-nAChR subunit cRNA alone”.
